Laboratory results as given in the NIST ThermoML archive (doi:10.1021/je801006q).

Legend:
[1] = excess molar enthalpy (molar enthalpy of mixing); xn = mol fraction of the nth substance listed; conditions: 298.15 K, 101 kPa, Liquid, Calvet calorimetry
[2] = xn = mol fraction of the nth substance listed; conditions: 101 kPa, Liquid
[3] = 101.33 kPa, Liquid

O=C1CCCN1 [2-pyrrolidinone] + CCC(C)O
[1]
Conditions	excess molar enthalpy [kcal/mol]
x1 = 0.0555	0.0404
x1 = 0.1212	0.0663
x1 = 0.1842	0.0823
x1 = 0.2443	0.0929
x1 = 0.3301	0.0988
x1 = 0.3903	0.0996
x1 = 0.4444	0.0966
x1 = 0.4998	0.092
x1 = 0.5887	0.0806
x1 = 0.6799	0.0665
x1 = 0.7389	0.0565
x1 = 0.8478	0.037
x1 = 0.9309	0.0215

[2]
Conditions	mass density, 293.15 K [kg/m3]	mass density, 298.15 K [kg/m3]	mass density, 303.15 K [kg/m3]	viscosity, 293.15 K [mPa·s]	viscosity, 298.15 K [mPa·s]	viscosity, 303.15 K [mPa·s]
x1 = 0.0995	831.58	828.13	824.55	3.409	2.829	2.3
x1 = 0.1675	849.93	846.53	842.94	3.108	2.409	1.896
x1 = 0.2444	871.14	867.8	864.23	3.034	2.443	1.707
x1 = 0.2996	886.73	883.42	879.83	2.84	2.461	1.724
x1 = 0.3945	914.18	910.92	907.3	2.982	2.561	1.834
x1 = 0.4531	931.54	928.3	924.68	3.084	2.698	2.068
x1 = 0.4967	944.64	941.43	937.81	3.237	2.856	2.348
x1 = 0.5546	962.32	959.15	955.53	3.668	3.241	2.702
x1 = 0.6402	989.06	985.96	982.36	4.673	4.125	3.405
x1 = 0.7126	1012.23	1009.19	1005.62	5.995	5.238	4.304
x1 = 0.7895	1037.38	1034.41	1030.84	7.928	6.821	5.519
x1 = 0.8438	1055.57	1052.66	1049.12	9.691	8.277	6.842
x1 = 0.9096	1078.09	1075.19	1071.64	11.74	10.1	8.162
x1 = 0.9767	1101.54	1098.73	1095.14	14.73	12.47	10.15

O=C1CCCN1 [2-pyrrolidinone] + CCCCO
[1]
Conditions	excess molar enthalpy [kcal/mol]
x1 = 0.0564	0.0234
x1 = 0.1225	0.039
x1 = 0.1877	0.0496
x1 = 0.2452	0.0563
x1 = 0.3266	0.0598
x1 = 0.3884	0.0603
x1 = 0.4453	0.0581
x1 = 0.5022	0.0556
x1 = 0.5963	0.0493
x1 = 0.6844	0.0412
x1 = 0.7452	0.0346
x1 = 0.8553	0.0227
x1 = 0.9278	0.0126

[2]
Conditions	mass density, 293.15 K [kg/m3]	mass density, 298.15 K [kg/m3]	mass density, 303.15 K [kg/m3]	viscosity, 293.15 K [mPa·s]	viscosity, 298.15 K [mPa·s]	viscosity, 303.15 K [mPa·s]
x1 = 0.0956	834.48	830.55	826.97	3.3	2.884	2.456
x1 = 0.1784	856.72	852.86	849.3	3.346	3.05	2.431
x1 = 0.2445	874.89	871.15	867.57	3.373	3.071	2.433
x1 = 0.3055	892	888.27	884.73	3.548	3.028	2.504
x1 = 0.3874	915.45	911.87	908.31	3.595	3.119	2.638
x1 = 0.4434	931.79	928.29	924.72	3.893	3.426	2.899
x1 = 0.4996	948.45	945.03	941.5	4.198	3.74	3.211
x1 = 0.5944	977.19	973.95	970.39	5.167	4.682	3.921
x1 = 0.6573	996.67	993.5	990.11	6.087	5.497	4.578
x1 = 0.7236	1017.57	1014.53	1011.05	7.353	6.572	5.384
x1 = 0.7983	1041.7	1038.72	1035.32	9.017	8.117	6.428
x1 = 0.8554	1060.58	1057.59	1054.15	10.75	9.56	7.469
x1 = 0.9121	1079.61	1076.71	1073.26	12.57	11.01	8.726
x1 = 0.9778	1102.22	1099.35	1095.78	14.88	12.7	10.3

CCCCO [butan-1-ol]
[3]
Conditions	mass density [kg/m3]	viscosity [mPa·s]
293.15 K	809.52	2.941
298.15 K	805.54	2.572
303.15 K	801.92	2.275

CCC(C)O (stereo unspecified) [butan-2-ol]
[3]
Conditions	mass density [kg/m3]	viscosity [mPa·s]
293.15 K	805.54	3.625
298.15 K	802.06	2.998
303.15 K	798.45	2.489
